This is an account of results in PMC6934184, “Selective DNA-PKcs inhibition extends the therapeutic index of localized radiotherapy and chemotherapy” (The Journal of Clinical Investigation, 2019).

The assay deals with T1, KDR (VEGFR2) (Homo sapiens, UniProt P35968).
T1 construct: purchased Thermo Fisher Scientific (Life Technologies) SelectScreen
The assay is described as follows: SelectScreen Z'LYTE. The class given is biochemical. The method, boiled down:
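NU5455 was profiled across the SelectScreen Broad panel of kinase activity and binding assays. Z'LYTE reactions such as CSF1R ran at apparent Km ATP, while the Adapta CAMK1 assay used ATP listed as 10. Values are given as percent.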

T1 sequence (P35968 20-1356): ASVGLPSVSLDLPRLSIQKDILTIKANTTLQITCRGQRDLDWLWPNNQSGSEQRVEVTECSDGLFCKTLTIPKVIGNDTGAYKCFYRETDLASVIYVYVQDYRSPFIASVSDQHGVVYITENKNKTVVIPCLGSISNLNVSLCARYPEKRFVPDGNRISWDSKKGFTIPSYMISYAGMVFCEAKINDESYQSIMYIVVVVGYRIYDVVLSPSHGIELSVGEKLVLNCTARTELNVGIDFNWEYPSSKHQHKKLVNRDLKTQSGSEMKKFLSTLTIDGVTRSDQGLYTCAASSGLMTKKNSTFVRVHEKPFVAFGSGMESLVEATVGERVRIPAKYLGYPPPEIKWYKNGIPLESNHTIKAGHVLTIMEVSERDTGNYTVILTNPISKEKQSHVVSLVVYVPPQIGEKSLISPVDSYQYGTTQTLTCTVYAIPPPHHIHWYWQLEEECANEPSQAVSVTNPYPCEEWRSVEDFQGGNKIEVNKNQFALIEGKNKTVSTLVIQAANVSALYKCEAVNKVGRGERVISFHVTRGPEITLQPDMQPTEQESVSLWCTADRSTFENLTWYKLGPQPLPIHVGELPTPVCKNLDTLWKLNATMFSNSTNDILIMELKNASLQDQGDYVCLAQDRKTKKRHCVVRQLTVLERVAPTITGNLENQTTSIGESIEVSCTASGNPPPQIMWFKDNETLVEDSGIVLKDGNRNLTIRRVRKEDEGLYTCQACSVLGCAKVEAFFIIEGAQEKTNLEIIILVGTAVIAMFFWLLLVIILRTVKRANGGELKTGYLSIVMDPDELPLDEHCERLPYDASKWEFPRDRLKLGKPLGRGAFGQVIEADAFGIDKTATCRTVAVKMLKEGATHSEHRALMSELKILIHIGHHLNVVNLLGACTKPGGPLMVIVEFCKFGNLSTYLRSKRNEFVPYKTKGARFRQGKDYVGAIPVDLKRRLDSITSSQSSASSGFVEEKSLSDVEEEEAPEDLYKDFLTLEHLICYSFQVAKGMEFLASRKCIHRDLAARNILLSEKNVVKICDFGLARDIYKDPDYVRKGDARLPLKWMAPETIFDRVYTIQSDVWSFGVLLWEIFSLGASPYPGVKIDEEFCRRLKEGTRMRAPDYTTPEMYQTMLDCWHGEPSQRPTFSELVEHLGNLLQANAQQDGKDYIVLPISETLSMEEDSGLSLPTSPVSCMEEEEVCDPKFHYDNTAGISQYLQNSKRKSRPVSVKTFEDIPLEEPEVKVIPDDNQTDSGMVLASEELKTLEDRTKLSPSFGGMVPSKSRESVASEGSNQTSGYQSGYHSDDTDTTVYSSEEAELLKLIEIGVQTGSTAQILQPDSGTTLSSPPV

In the case of `CN(C(=O)CN1CCOCC1)c1ccc2sc3c(-c4cccc5c(=O)cc(N6CC7CCC(C6)O7)oc45)cccc3c2c1` [NU5455], the inhibition at 1 µM amounted to 1.8%.

A word on the inhibition: it is how much of the control response was suppressed. Read a high inhibition as strong suppression.
